# Measurements as given in patent publication US20070287672A1, “Macromolecular Gsh-Activiated Glyoxylase I Inhibitors” (priority 2004, published 2007).
# Experiments:
# [1] = test system: murine leukemia L1210 cells; settings: cited from earlier work; for IC50: diethyl ester prodrugs, after 72 hours of incubation, read-out: IC50, growth inhibition of L1210 cells in culture
# [2] = target: T1, bovine liver GlxII (Bos taurus, UniProt Q3B7M2); settings: cited from earlier work
# T1 construct: host or cells: bovine liver
# [3] = test system: B16 melanotic melanoma; settings: intravenous administration, tumor-bearing mice; cited from earlier work
# [4] = test system: PC3 prostate tumors; settings: intravenous administration, tumor-bearing mice; cited from earlier work
# [5] = test system: HT29 human colon tumors; settings: intravenous administration, tumor-bearing mice; cited from earlier work
# [6] = intravenous administration, tumor-bearing mice; cited from earlier work
# [7] = test system: Murine B16 melanotic melanoma; experiment: In vitro cytotoxicity, growth inhibition of B16 melanotic melanoma; assay type: cell-based; settings: 72 hours
# Procedure: Murine B16 melanotic melanoma was obtained from the DCT Tumor Repository (NCI-Cancer Research and Development Center, Frederick, Md.) and was maintained in RPMI 1640 medium containing L-glutamate (Gibco BRL, Gaithersburg, Md.), supplemented with 10% heat-inactivated fetal calf serum and gentamycin (10 μg/mL), under 37° C. humidified air containing 5% CO2. Under these conditions B16 cells have a doubling time of about 26 hours. For the toxicity studies, cells in logarithmic growth were introduced into 24 well plates at a density of 2×10^4 cells/ml in the absence and presence of drug spanning the IC50 values.
# After 72 hours, the cells were washed with Hank's balanced salt solution without Ca^2+, treated with trypsin for 10 minutes at 37° C., concentrated by centrifugation and cell densities determined with a Coulter Counter. Cell viabilities were determined by the trypan blue exclusion method (Kaltenbach et al, Exp. Cell. Res. 15:112-117 (1958)).
# Reported IC50 values (mean ±standard deviation of triplicate determinations carried out in three separate assays on different days) were calculated using the Hill equation and the program ADAPT (D'Argenio and Schumitzky, Comput. Methods Programs Biomed. 9:115-134 (1979)).
# [8] = test system: several different tumor cell lines; settings: in vitro; cited from earlier work
# [9] = potassium phosphate buffer, 25° C., cited from earlier work
compound,measurement,setting,value
CCOC(=O)CNC(=O)C(CSC(=O)N(O)c1ccc(Br)cc1)NC(=O)CCC(N)C(=O)OCC (centres unmarked) [BHG(Et)2],IC50,[1],16 µM
"N[C@@H](CCC(=O)N[C@@H](CSC(=O)N(O)c1ccc(Br)cc1)C(=O)NCC(=O)O)C(=O)O [BHG, S—(N-p-bromophenyl-N-hydroxycarbamoyl)glutathione]",substrate for bovine liver GlxII,[2],substrates for bovine liver GlxII
CCOC(=O)CNC(=O)[C@H](CSC(=O)N(O)c1ccc(Cl)cc1)NC(=O)CC[C@H](N)C(=O)OCC [CHG(Et)2],IC50,[1],5 µM
same,toxicity to L1210 cells versus normal splenic lymphocytes,[1]; in culture,significantly more toxic to murine leukemia L1210 cells than to normal splenic lymphocytes
same,"inhibition of tumor growth, B16 melanotic melanoma",[3],inhibits the growth
same,"inhibition of tumor growth, PC3 prostate tumors",[4],inhibits the growth
same,"inhibition of tumor growth, HT29 human colon tumors",[5],inhibits the growth
same,side effects in short term efficacy studies,[6],did not detect any significant side effects
same,tissue distribution of the prodrug,[6],appearance of the prodrug in all major organs
"N[C@@H](CCC(=O)N[C@@H](CSC(=O)N(O)c1ccc(Cl)cc1)C(=O)NCC(=O)O)C(=O)O [CHG, S—(N-p-chlorophenyl-N-hydroxycarbamoyl)glutathione]",substrate for bovine liver GlxII,[2],substrates for bovine liver GlxII
"CC[S+]([O-])C(=O)N(O)c1ccc(Cl)cc1 (centres unmarked) [Compound 2, S—(N-4-chlorophenyl-N-hydroxycarbamoyl)ethyl sulfoxide]","IC50 value relative to that of HPMA-8-sulfoxide (P1), fold lower",[7],five to ten-fold lower
same,cytostatic and cytotoxic activity on tumor cell lines,[8],cytostatic and cytotoxic
same,rate constant k for reaction of GSH with the simple sulfoxide,[9]; 0.1 M (pH 7.5),30.7 ± 1.2 M⁻¹ s⁻¹
"CCC[S+]([O-])C(=O)N(O)c1ccc(Cl)cc1 (centres unmarked) [Compound 2a, S—(N-4-Chlorophenyl-N-hydroxycarbamoyl)propyl sulfoxide]","IC50 value relative to that of HPMA-8-sulfoxide (P1), fold lower",[7],five to ten-fold lower
"CCCC[S+]([O-])C(=O)N(O)c1ccc(Cl)cc1 (centres unmarked) [Compound 2b, S—(N-4-Chlorophenyl-N-hydroxycarbamoyl)butyl sulfoxide]","IC50 value relative to that of HPMA-8-sulfoxide (P1), fold lower",[7],five to ten-fold lower
"C/C=C/C(=O)OCC1=CCCCC1=O [Compound 3, 2-crotonyloxymethyl-2-cyclohexenone]","IC50 value relative to that of HPMA-7 (P4), fold lower",[7],over 7000 fold
same,rate constant k for reaction of GSH with the crotonate ester,[9]; 0.1 M (pH 6.5),1.13 ± 0.017 M⁻¹ s⁻¹
CCOC(=O)CNC(=O)C(CSC(=O)N(O)c1ccccc1)NC(=O)CCC(N)C(=O)OCC (centres unmarked) [PHG(Et)2],IC50,[1],63 µM
CN(O)C(=O)SC[C@H](NC(=O)CC[C@H](N)C(=O)O)C(=O)NCC(=O)O [S—(N-methyl-N-hydroxycarbamoyl)glutathione],substrate for bovine liver GlxII,[2],substrates for bovine liver GlxII
N[C@@H](CCC(=O)N[C@@H](CSC(=O)N(O)c1ccccc1)C(=O)NCC(=O)O)C(=O)O [S—(N-phenyl-N-hydroxycarbamoyl)glutathione],substrate for bovine liver GlxII,[2],substrates for bovine liver GlxII
